Consider 31 molecules from patent US10287292B2, “CXCR7 antagonists” (CHEMOCENTRYX, INC., priority 2012, dated 2019).

For orientation: IC50 means the concentration that gives 50% inhibition.

Test [1] concerns the target T1, CXCR7 receptor (Homo sapiens (Human), UniProt P25106). Description: Buffer Binding Analysis: displacement of 125I-labeled SDF-1 from CXCR7. The following applies: 125I SDF-1 displacement, buffer binding medium, MCF-7 and/or MDA-MB-435S CXCR7 transfected cells, 3 hr at 4° C.; read-out: Avg Bind IC50. The protocol:
(§1) The compounds were combined with cells expressing the CXCR7 receptor (e.g., MCF cells or cells transfected to express CXCR7) in the presence of the 125 I-labeled SDF-1 chemokine as detailed in Determination of IC50 values. Reagents and Cells (see below). The ability of the compounds to displace the labeled chemokine from the CXCR7 receptor sites at multiple concentrations was then determined with the screening process.
Compounds that were deemed effective modulators were able to displace at least 50% of the SDF-1 from the CXCR7 receptor at concentrations at or below 15 micromolar (μM) but >2500 nM (+); and more preferably at concentrations from >500 nM to ≤2500 nM (++). At present, especially preferred compounds can displace at least 50% of the SDF-1 from the CXCR7 receptor at concentrations at or below 500 nM (+++). Exemplary compounds that met these criteria are reproduced in Table 1 and the Examples above. In Table 1, Avg Bind IC50 refers to the Buffer Binding Analysis described below, while Avg Ser IC50 refers to the Serum Binding Analysis described below. All compounds were prepared as described in the Examples above, or by related methods substituting readily available starting materials.
(§2) ^125I-labeled SDF-1 was purchased from Perkin-Elmer Life Sciences, Inc. (Boston, Mass.). The MCF-7 (adenocarcinoma; mammary gland) cell line was obtained from the American Type Culture Collection (ATCC, Manassas, Va.) or and was cultured in DMEM (Mediatech, Herndon, Va.) supplemented with 10% fetal bovine serum (FBS) (HyClone Logan, Utah) and bovine insulin (0.01 mg/mL) (Sigma. St. Louis, Mo.) at 37° C. in a humidified incubator at a 5% CO2/air mixture. CXCR7 transfected MDA-MB-435S were produced as described below. MDA-MB-435S human breast cancer line, was purchased from ATCC, and cultured in DMEM/10% FBS medium. The complete coding sequence of the gene encoding CXCR7 (a.k.a. CCXCKR2, hRDC1), was isolated from MCF-7 cells using μMACs mRNA isolation kit (Miltenyi Biotec, Auburn, Calif.). DNA contamination was removed by DNase digestion via RNeasy columns (Qiagen, Inc., Valencia, Calif.) and cDNA was generated using GeneAmp RNA PCR Core Kit (Applied Biosystems, Foster City. Calif.). PCR of cDNA samples was performed using Taq PCR Master Mix kit (Qiagen. Inc.) and hRDC1 primers harboring 5′ and 3′ Not I sites (hRDC1F 5′ […]-3, hRDC1R 5′-[…]-3′) Not I digested PCR product was ligated into Not I digested pcDNA3.1(+)(Invitrogen, Carlsbad, Calif.) and screened for orientation and sequence confirmed. Plasmid DNA was then isolated from overnight bacterial cultures by Maxiprep (Qiagen, Inc.). Plasmid DNA (10 μg) was added to MDA-MB-435s cells and cells were electroporated (0.22 kV, 960 uF) via Gene Pulser (Biorad laboratories, Hercules, Calif.). 48 hr post-electroporation, cells were transferred to selection medium (600 ug/ml G418).
(§3) Target compounds can be tested to determine their ability to bind with CXCR7 sites on MCF-7 and/or MDA-MB-435S CXCR7 transfected cells. Efficiency-maxim/zed radioligand binding using filtration protocols as described in Dairaghi D J, et al., HHV8-encoded vMIP-I selectively engages chemokine receptor CCR5. Agonist and antagonist profiles of viral chemokines., J. Biol. Chem. 1999 Jul. 30; 274(31): 21569-74 and Gosling J. et al., Cutting edge: identification of a novel chemokine receptor that binds dendritic cell-and T cell-active chemokines including ELC. SLC, and TECK., J. Immunol. 2000 Mar. 15; 164(6):2851-6 was used.
In these assays, MCF-7 and/or MDA-MB-435S cells are interrogated with the target compounds and the ability of these compounds to displace ^125I radiolabeled SDF-1 assessed using the protocol described in Dairaghi and Gosling. […]
On the technique in general: In a radioligand displacement assay an active substance lowers the binding of a labelled ligand.

Test [2] addresses T1, CXCR7 receptor. Description: Serum Binding Analysis: displacement of 125I-labeled SDF-1 from CXCR7 in 100% human serum. The following applies: 125I SDF-1 displacement in 100% human serum, MCF-7 and/or MDA-MB-435S CXCR7 transfected cells, 3 hrs at 4° C.; read-out: Avg Ser IC50. The procedure: as §1
In Table 1, Avg Bind IC50 refers to the Buffer Binding Analysis described below, while Avg Ser IC50 refers to the Serum Binding Analysis described below. All compounds were prepared as described in the Examples above, or by related methods substituting readily available starting materials.
as §2
as §3, with “In order to more properly assess the binding efficacy of the compounds, radioligand binding assays were carried out in the presence of 100% human serum to more accurately reflect the in vivo environment. […] Target” for “Target”, “compounds were” for “compounds can be”, “Gosling J,” for “Gosling J.”, “dendritic cell- and” for “dendritic cell-and”, “including ELC,” for “including ELC.”, “and TECK,” for “and TECK.,”
In these assays, MCF-7 and/or MDA-MB-435S cells were interrogated with the target compounds and the ability of these compounds to displace 125 I radiolabeled SDF-1 was assessed using the protocol described in Dairaghi and Gosling. The target compounds were added to the plate to the indicated concentration followed by addition of cells and radiolabeled chemokine (125I SDF-1), both in the following medium (human AB serum with 10 mM HEPES added to stabilize at pH 7.4). All assays were then incubated for 3 hrs at 4° C. with gentle agitation.

Where only a bound is given, the exact number is not on record here.

T1 sequence (P25106 whole entry): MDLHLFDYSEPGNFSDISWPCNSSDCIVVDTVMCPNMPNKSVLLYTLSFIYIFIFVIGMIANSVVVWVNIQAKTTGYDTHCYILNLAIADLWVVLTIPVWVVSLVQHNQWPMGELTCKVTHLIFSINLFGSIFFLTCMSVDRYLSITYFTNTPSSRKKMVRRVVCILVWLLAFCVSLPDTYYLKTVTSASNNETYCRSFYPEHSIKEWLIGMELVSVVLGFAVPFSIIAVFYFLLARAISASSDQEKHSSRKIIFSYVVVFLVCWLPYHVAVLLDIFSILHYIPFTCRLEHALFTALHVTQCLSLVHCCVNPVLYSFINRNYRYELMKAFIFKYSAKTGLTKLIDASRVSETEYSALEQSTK

Take `O=C(N[C@H]1CCN(c2nccn3cnnc23)C1)c1ccn(-c2ccc(Cl)cc2)n1` [Compound 1.112]: the IC50 at CXCR7 receptor [1] is at most 500 nM; on CXCR7 receptor [2], 500 to 2500 nM.
For `O=C(N[C@H]1CCN(c2nccn3cnnc23)C1)c1ccn(-c2ccc(F)cc2)n1` [Compound 1.084], in that order: at most 500 nM and at most 500 nM.
In the case of `Cc1ccn2ccnc(N3CC[C@H](NC(=O)c4csc(-c5ccc(F)cc5)n4)C3)c12` [Compound 1.108], the IC50 at CXCR7 receptor [1] is at most 500 nM; at CXCR7 receptor [2] it was 500 to 2500 nM.
For `Cc1ccn2ccnc(N3CC[C@H](NC(=O)c4ccn(-c5ccc(Cl)cc5)n4)C3)c12` [Compound 1.104], in that order: at most 500 nM and 2500 to 15000 nM.
For `Cc1ccccc1-n1cnc(C(=O)N[C@H]2CCN(c3nccn4cccc34)C2)n1` [Compound 1.118], in that order: at most 500 nM and at most 500 nM.
The like results for `Cc1ccn2ccnc(N3CC[C@H](NC(=O)c4ncn(-c5ccccc5)n4)C3)c12` [Compound 1.117] were, in that order, at most 500 nM and at most 500 nM.
As to `O=C(N[C@H]1CCN(c2nccn3cccc23)C1)c1noc(C2CCOCC2)n1` [Compound 1.082], the concentration for half-maximal inhibition (IC50) is at most 500 nM on CXCR7 receptor [1] and 500 to 2500 nM on CXCR7 receptor [2].
Regarding `O=C(N[C@H]1CCN(c2nccn3cccc23)C1)c1csc(-c2ccccc2)n1` [Compound 1.124], the IC50 on CXCR7 receptor [1] and on CXCR7 receptor [2] was at most 500 nM each time.
For the molecule `O=C(N[C@H]1CCN(c2nccn3ccnc23)C1)c1ncn(-c2ccccc2)n1` [Compound 1.091], the IC50 on CXCR7 receptor [1] and at CXCR7 receptor [2] was at most 500 nM each time.
For `Cc1ccn2ccnc(N3CC[C@H](NC(=O)c4ncc(-c5ccccc5)cn4)C3)c12` [Compound 1.110], the IC50 at CXCR7 receptor [1] is at most 500 nM; on CXCR7 receptor [2], 500 to 2500 nM.
Consider `O=C(N[C@H]1CCN(c2nccn3cccc23)C1)c1csc(-c2ccc(F)cc2)n1` [Compound 1.096], for which the half-maximal inhibitory concentration (IC50) on CXCR7 receptor [1] and on CXCR7 receptor [2] was at most 500 nM in each case.
For the molecule `Cc1ccn2ccnc(N3CC[C@H](NC(=O)c4ccn(-c5cccc(F)c5)n4)C3)c12` [Compound 1.099], the IC50 on CXCR7 receptor [1] and at CXCR7 receptor [2] was at most 500 nM each time.
Take `Cc1ccn2ccnc(N3CC[C@H](NC(=O)c4csc(-c5ccccc5)n4)C3)c12` [Compound 1.105]: the IC50 on CXCR7 receptor [1] was at most 500 nM; on CXCR7 receptor [2] it was 500 to 2500 nM.
For `N#CCc1ccccc1-n1ccc(C(=O)N[C@H]2CCN(c3nccn4cccc34)C2)n1` [Compound 1.115], in that order: at most 500 nM and at most 500 nM.
The like results for `O=C(N[C@H]1CCN(c2nccn3ccnc23)C1)c1csc(N2CCC(O)CC2)n1` [Compound 1.079] were, in that order, at most 500 nM and at most 500 nM.
For `Cc1ccn2ccnc(N3CC[C@H](NC(=O)c4ccn(-c5ccccc5CC#N)n4)C3)c12` [Compound 1.101], the results for the half-maximal inhibitory concentration (IC50) on CXCR7 receptor [1] and on CXCR7 receptor [2] were at most 500 nM and 500 to 2500 nM, respectively.
For `CC(C)c1cnc(C(=O)N[C@H]2CCN(c3nccn4cccc34)C2)nc1` [Compound 1.077], in that order: at most 500 nM and at most 500 nM.
As to `Cc1cc(Cl)ccc1-n1ccc(C(=O)N[C@H]2CCN(c3nccn4cccc34)C2)n1` [Compound 1.094], the IC50 on CXCR7 receptor [1] and on CXCR7 receptor [2] was at most 500 nM in each case.
Take `Cc1ccccc1-c1nc(C(=O)N[C@H]2CCN(c3nccn4cccc34)C2)co1` [Compound 1.080]: the half-maximal inhibitory concentration (IC50) at CXCR7 receptor [1] was at most 500 nM; on CXCR7 receptor [2] it was 500 to 2500 nM.
For `O=C(N[C@H]1CCN(c2nccn3cnnc23)C1)c1ncn(-c2ccccc2)n1` [Compound 1.127], in that order: at most 500 nM and at most 500 nM.
For `Cc1ccn2ccnc(N3CC[C@H](NC(=O)c4coc(-c5ccc(F)cc5)n4)C3)c12` [Compound 1.116], in that order: at most 500 nM and 500 to 2500 nM.
The like results for `O=C(N[C@H]1CCN(c2nccn3cccc23)C1)c1ncn(-c2ccccc2)n1` [Compound 1.126] were, in that order, at most 500 nM and at most 500 nM.
As to `Cc1cc(Cl)ccc1-n1ccc(C(=O)N[C@H]2CCN(c3nccn4ccc(C)c34)C2)n1` [Compound 1.103], the half-inhibitory concentration (IC50) on CXCR7 receptor [1] is at most 500 nM; at CXCR7 receptor [2], 500 to 2500 nM.
`O=C(N[C@H]1CCN(c2nccn3cnnc23)C1)c1coc(-c2ccc(F)cc2)n1` [Compound 1.122]: the IC50 at CXCR7 receptor [1] and on CXCR7 receptor [2] was at most 500 nM each time.
With `Cc1ccn2ccnc(N3CC[C@H](NC(=O)c4noc(-c5ccccc5)n4)C3)c12` [Compound 1.111], the values for the 50% inhibitory concentration (IC50) at CXCR7 receptor [1] and on CXCR7 receptor [2] were at most 500 nM and 500 to 2500 nM, respectively.
The like results for `O=C(N[C@H]1CCN(c2nccn3cccc23)C1)c1ccn(-c2ccc(Cl)cc2)n1` [Compound 1.129] were, in that order, at most 500 nM and at most 500 nM.
With `O=C(N[C@H]1CCN(c2nccn3ccnc23)C1)c1ccn(C2CCOCC2)n1` [Compound 1.086], the IC50 on CXCR7 receptor [1] and at CXCR7 receptor [2] was 500 to 2500 nM each time.
Regarding `O=C(N[C@H]1CCN(c2nccn3cccc23)C1)c1ccn(C2CCOCC2)n1` [Compound 1.088], the IC50 at CXCR7 receptor [1] and at CXCR7 receptor [2] was at most 500 nM in each case.
As to `O=C(N[C@H]1CCN(c2nccn3cccc23)C1)c1coc(-c2ccc(F)cc2)n1` [Compound 1.095], the concentration for half-maximal inhibition (IC50) at CXCR7 receptor [1] and at CXCR7 receptor [2] was at most 500 nM throughout.
`O=C(N[C@H]1CCN(c2nccn3cnnc23)C1)c1csc(N2CCC(O)CC2)n1` [Compound 1.078]: the IC50 on CXCR7 receptor [1] and at CXCR7 receptor [2] was at most 500 nM in each case.
For the molecule `Cc1ccn2ccnc(N3CC[C@H](NC(=O)c4coc(-c5ccccc5)n4)C3)c12` [Compound 1.107], the IC50 on CXCR7 receptor [1] is at most 500 nM; on CXCR7 receptor [2], 500 to 2500 nM.
